pIC50: −log10 of the molar value.

The first series has as its system O. volvulus. Put plainly: O. volvulus molting assay. The series is classed as cell-based. As to conditions: Onchocerca volvulus. The text has this:
As summarized in Table 1, we were encouraged to find that the initial ketone analogs prepared, namely, 15 (6-linked) and 20 (5-linked), were quite active in an O. volvulus molting assay we used as a primary indicator of antiparasitic activity[30],[31] and were only weakly active in a G2/M arrest,[32] indicative of the interaction with mammalian tubulin. As described above, our hypothesis was to reduce Pgp efflux liability through elimination of the hydrogen-bond donor associated with the N–H of the amide linker, as this has been shown in the literature to be a contributor to recognition by Pgp.[33],[34] […] We were disappointed to find that the 5-linked analog 22 was poorly selective and the 6-linked analog 23 was only weakly active. […]
(§1) in comparison to the number of control larvae that had successfully molted. IC50 values were calculated using GraphPad Prism v6.0 (http://www.graphpad.com). See Bullman et al., PLoS
(§2) Negl. Trop. Dis., 2015, 9, e3534 for further details.
(§3) Adult Brugia malayi in vivo model procedure.
(§4) Gerbils (Meriones unguiculatus) were infected by transplantation of 10 male and 10 female adult Brugia malayi into the peritoneal cavity. Gerbils were acclimated for 7 days prior to treatment. Animals were dosed based on their body weight prior to each dosing. Animals were administered their doses at the same time each day and receive standard rodent laboratory diet and water ad libitum. Gerbils were humanely euthanized at the conclusion of each study.
(§5) Peritoneal counts of male and female adult B. malayi and visual condition of the peritoneum […]
(§6) L3 Brugia pahangi in vivo model procedure.
(§7) Male gerbils (Meriones unguiculatus) approximately 6 weeks of age (50-60 g) were purchased from Charles Rivers (USA, Kingston K62 Gerbils) and infected by intraperitoneal injection with 200 Brugia pahangi third-stage larvae (L3) per animal (Filariatech, Inc., Athens, GA). Gerbils were housed with no more than 5 animals per cage and maintained 9 months prior to treatment. All gerbils were dosed in accordance with their body weight determined prior to each dosing. Animals were administered their doses at the same time each day and are allowed to feed and drink ad libitum. Gerbils were euthanized following approved institutional protocols. Euthanized animals were weighed and examined for external and visceral pathologies. The adult Brugia worms were recovered by opening the body cavity and washing the peritoneal cavity with 100 mL of phosphate buffered saline. Male and female worms were counted using a dissecting microscope.
(§8) Litomosoides sigmodontis in vivo model procedure. 2
(§9) All animal experiments with L. sigmodontis were conducted at the Institute for Medical Microbiology, Immunology and Parasitology (IMMIP), University Hospital of Bonn, in accordance to the European Union animal welfare guidelines. All protocols were approved by the local authorities (Landesamt für Natur, Umwelt und Verbraucherschutz, Cologne, Germany (AZ 84- […]
(§10) Janvier (Saint-Berthevin, France) and were housed at the animal facility of the IMMIP in individually ventilated cages on a 12h light/dark cycle with food and water ad libidum. Mice were infected at 6-8 weeks of age via exposure to the natural mite vector Ornithonyssus bacoti
On to `COC(=O)Nc1nc2cc(C(=O)c3ccc4c(c3)B(O)O[C@@H]4C)ccc2[nH]1` (single isomer, unassigned) [compound 24], for which the inhibition – broadly, how much of the control response was suppressed – at 1 µM worked out at 2%.

Molecule `COC(=O)Nc1nc2ccc(C(=O)c3ccc4c(c3)B(O)OC4(C)C)cc2[nH]1` [compound 23] had an inhibition at 1 µM of 0%.

The series is the same for the next values; noted with them: Onchocerca volvulus; molting assay.
As for `COC(=O)Nc1nc2cc(C(=O)c3ccc4c(c3)B(O)O[C@@H]4C)ccc2[nH]1` (single isomer, unassigned) [compound 24], the pIC50 – broadly, −log10 of the IC50, conventionally taken in molar units – was under 6.00.

`COC(=O)Nc1nc2cc(C(=O)c3ccc4c(c3)B(O)O[C@H]4C)ccc2[nH]1` (single isomer, unassigned) [compound 25] had a pIC50 of 7.40.

In turn, `COC(=O)Nc1nc2cc(C(=O)c3cccc4c3B(O)O[C@@H]4C)ccc2[nH]1` (single isomer, unassigned) [compound 29] had a pIC50 of 7.00.

The molecule `COC(=O)Nc1nc2cc(C(=O)c3cccc4c3B(O)O[C@H]4C)ccc2[nH]1` (single isomer, unassigned) [compound 30] showed a pIC50 of 6.96.

For the molecule `COC(=O)Nc1nc2cc(C(=O)c3ccc(F)cc3)ccc2[nH]1` [compound 3, flubendazole, reference compound], the pIC50 was 8.40.

`COC(=O)Nc1nc2cc(C(=O)c3ccc4c(c3)B(O)OC4)ccc2[nH]1` [compound 15] had a pIC50 of 6.93.

Molecule `COC(=O)Nc1nc2cc(C(=O)c3cccc4c3COB4O)ccc2[nH]1` [compound 19] had a pIC50 of 5.80.

As for `COC(=O)Nc1nc2ccc(C(=O)c3ccc4c(c3)B(O)OC4(C)C)cc2[nH]1` [compound 23], the pIC50 was under 6.00.

The next series relates to mammalian tubulin (G2/M arrest). The experiment in a line: G2/M arrest assay, indicative of interaction with mammalian tubulin. The series is classed as cell-based.
Conditions: not given
The text has this: (§11) As summarized in Table 1, we were encouraged to find that the initial ketone analogs prepared, namely, 15 (6-linked) and 20 (5-linked), were quite active in an O. volvulus molting assay we used as a primary indicator of antiparasitic activity[30],[31] and were only weakly active in a G2/M arrest,[32] indicative of the interaction with mammalian tubulin. As described above, our hypothesis was to reduce Pgp efflux liability through elimination of the hydrogen-bond donor associated with the N–H of the amide linker, as this has been shown in the literature to be a contributor to recognition by Pgp.[33],[34] […] We were disappointed to find that the 5-linked analog 22 was poorly selective and the 6-linked analog 23 was only weakly active.
`COC(=O)Nc1nc2cc(C(=O)c3ccc4c(c3)B(O)O[C@@H]4C)ccc2[nH]1` (single isomer, unassigned) [compound 24] had a pIC50 of under 4.00.

In turn, `COC(=O)Nc1nc2cc(C(=O)c3ccc4c(c3)B(O)O[C@H]4C)ccc2[nH]1` (single isomer, unassigned) [compound 25] showed a pIC50 of under 4.00.

`COC(=O)Nc1nc2cc(C(=O)c3cccc4c3B(O)O[C@@H]4C)ccc2[nH]1` (single isomer, unassigned) [compound 29] had a pIC50 of 5.25.

Molecule `COC(=O)Nc1nc2cc(C(=O)c3cccc4c3B(O)O[C@H]4C)ccc2[nH]1` (single isomer, unassigned) [compound 30] showed a pIC50 of 4.91.

`COC(=O)Nc1nc2cc(C(=O)c3ccc(F)cc3)ccc2[nH]1` [compound 3, flubendazole, reference compound] had a pIC50 of 6.17.

In the case of `COC(=O)Nc1nc2cc(C(=O)c3ccc4c(c3)B(O)OC4)ccc2[nH]1` [compound 15], the pIC50 was 4.91.

Molecule `COC(=O)Nc1nc2cc(C(=O)c3cccc4c3COB4O)ccc2[nH]1` [compound 19] gave a pIC50 of under 4.00.

`COC(=O)Nc1nc2ccc(C(=O)c3ccc4c(c3)B(O)OC4(C)C)cc2[nH]1` [compound 23] gave a pIC50 of under 4.00.

Tested on in the next series: not listed separately
Put plainly: Metabolic stability (Clint) in gerbil microsomes. The series is classed as in vitro ADME.
Conditions: not given
Description: as §11
For the molecule `COC(=O)Nc1nc2cc(C(=O)c3ccc4c(c3)B(O)O[C@H]4C)ccc2[nH]1` (single isomer, unassigned) [compound 25], the microsomal CLint – broadly, a measure of how fast metabolising enzymes remove a compound, apart from limits set by blood flow – was under 4 µL/min/mg.

Molecule `COC(=O)Nc1nc2cc(C(=O)c3cccc4c3B(O)O[C@@H]4C)ccc2[nH]1` (single isomer, unassigned) [compound 29] registered a microsomal CLint of under 4 µL/min/mg.

In the case of `COC(=O)Nc1nc2cc(C(=O)c3cccc4c3B(O)O[C@H]4C)ccc2[nH]1` (single isomer, unassigned) [compound 30], the microsomal CLint is under 4 µL/min/mg.

`COC(=O)Nc1nc2cc(C(=O)c3ccc(F)cc3)ccc2[nH]1` [compound 3, flubendazole, reference compound]: the microsomal CLint was under 4 µL/min/mg.

As to `COC(=O)Nc1nc2cc(C(=O)c3ccc4c(c3)B(O)OC4)ccc2[nH]1` [compound 15], the microsomal CLint is 8.25 µL/min/mg.

Tested on in a further series: not listed separately
Put plainly: Metabolic stability (Clint) in human microsomes. It counts as in vitro ADME.
Conditions: not given
Description: as §11
On to `COC(=O)Nc1nc2cc(C(=O)c3ccc4c(c3)B(O)O[C@H]4C)ccc2[nH]1` (single isomer, unassigned) [compound 25], for which the microsomal CLint is under 4 µL/min/mg.

`COC(=O)Nc1nc2cc(C(=O)c3cccc4c3B(O)O[C@@H]4C)ccc2[nH]1` (single isomer, unassigned) [compound 29] registered an intrinsic metabolic clearance (microsomal CLint) of under 4 µL/min/mg.

With `COC(=O)Nc1nc2cc(C(=O)c3cccc4c3B(O)O[C@H]4C)ccc2[nH]1` (single isomer, unassigned) [compound 30], the microsomal CLint is under 4 µL/min/mg.

Molecule `COC(=O)Nc1nc2cc(C(=O)c3cccc4c3COB4O)ccc2[nH]1` [compound 19] displayed a microsomal CLint of 5.56 µL/min/mg.

Another series concerns P-gp (MDR1). The experiment in a line: MDCK-MDR1 cell monolayer permeability assay. As to conditions: dog. The series is classed as in vitro ADME.
Description: as §11
On to `COC(=O)Nc1nc2cc(C(=O)c3ccc4c(c3)B(O)O[C@H]4C)ccc2[nH]1` (single isomer, unassigned) [compound 25], for which the Papp A→B – broadly, how fast a substance crosses the layer from the apical side – is 15.5 ×10⁻⁶ cm/s.

The molecule `COC(=O)Nc1nc2cc(C(=O)c3cccc4c3B(O)O[C@@H]4C)ccc2[nH]1` (single isomer, unassigned) [compound 29] gave a Papp A→B of 57.2 ×10⁻⁶ cm/s.

For `COC(=O)Nc1nc2cc(C(=O)c3cccc4c3B(O)O[C@H]4C)ccc2[nH]1` (single isomer, unassigned) [compound 30], the Papp A→B was found to be 34.3 ×10⁻⁶ cm/s.

`COC(=O)Nc1nc2cc(C(=O)c3ccc4c(c3)B(O)OC4)ccc2[nH]1` [compound 15] had a Papp A→B of 6 ×10⁻⁶ cm/s.

In the case of `COC(=O)Nc1nc2cc(C(=O)c3cccc4c3COB4O)ccc2[nH]1` [compound 19], the Papp A→B is 28.3 ×10⁻⁶ cm/s.

`COC(=O)Nc1nc2ccc(C(=O)c3ccc4c(c3)B(O)OC4(C)C)cc2[nH]1` [compound 23] yielded a Papp A→B of 20.7 ×10⁻⁶ cm/s.

The same series, now with this note: dog, A-B, read-out: MDCK-MDR1 Papp (A-B).
For the molecule `COC(=O)Nc1nc2cc(C(=O)c3ccc(F)cc3)ccc2[nH]1` [compound 3, flubendazole, reference compound], the Papp A→B amounted to 15.6 ×10⁻⁶ cm/s.

Tested on in another series: not listed separately
Put plainly: Pharmacokinetics in Mongolian gerbils. As to conditions: blood, 2 mg/kg; Mongolian gerbils, dose 2, IV; read-out: AUC0–24. The series is classed as in vivo. The text has this: In addition, the concentrations achieved at these doses were well in excess of the O. volvulus IC50, a requirement for in vivo activity that we had hypothesized on the basis of earlier work in the amide-linked series.
As to `COC(=O)Nc1nc2cc(C(=O)c3cccc4c3B(O)O[C@H]4C)ccc2[nH]1` (single isomer, unassigned) [compound 30], the AUC(0-t) is 14600 ng·h/mL.

As for `COC(=O)Nc1nc2cc(C(=O)c3ccc4c(c3)B(O)OC4)ccc2[nH]1` [compound 15], the AUC(0-t) is 880 ng·h/mL.

Staying with this series, now noted: blood, 2 mg/kg; Mongolian gerbils, dose 2, IV; read-out: Cmax.
Take `COC(=O)Nc1nc2cc(C(=O)c3cccc4c3B(O)O[C@H]4C)ccc2[nH]1` (single isomer, unassigned) [compound 30]: the Cmax – broadly, the peak of the concentration-time curve – stood at 7580 ng/mL.

Take `COC(=O)Nc1nc2cc(C(=O)c3ccc4c(c3)B(O)OC4)ccc2[nH]1` [compound 15]: the Cmax came out at 2260 ng/mL.

Staying with this series, now noted: blood, 10 mg/kg; Mongolian gerbils, dose 10, PO; read-out: AUC0–24.
Take `COC(=O)Nc1nc2cc(C(=O)c3cccc4c3B(O)O[C@H]4C)ccc2[nH]1` (single isomer, unassigned) [compound 30]: the AUC(0-t) turned out to be 141000 ng·h/mL.

Turning to `COC(=O)Nc1nc2cc(C(=O)c3ccc4c(c3)B(O)OC4)ccc2[nH]1` [compound 15], the AUC(0-t) came out at 790 ng·h/mL.

The series is the same for the next values; noted with them: blood, 10 mg/kg; Mongolian gerbils, dose 10, PO; read-out: Cmax.
Take `COC(=O)Nc1nc2cc(C(=O)c3cccc4c3B(O)O[C@H]4C)ccc2[nH]1` (single isomer, unassigned) [compound 30]: the Cmax stood at 14000 ng/mL.

On to `COC(=O)Nc1nc2cc(C(=O)c3ccc4c(c3)B(O)OC4)ccc2[nH]1` [compound 15], for which the Cmax turned out to be 270 ng/mL.

The series is the same for the next values; noted with them: blood, po, 10 mg/kg, Mongolian gerbils, dose 10, PO; read-out: bioavailability (%F).
For the molecule `COC(=O)Nc1nc2cc(C(=O)c3cccc4c3B(O)O[C@H]4C)ccc2[nH]1` (single isomer, unassigned) [compound 30], the bioavailability – broadly, dose-corrected exposure relative to a reference, in per cent – is about 100%.

For `COC(=O)Nc1nc2cc(C(=O)c3ccc4c(c3)B(O)OC4)ccc2[nH]1` [compound 15], the bioavailability came to 18%.

Another series deals with Brugia pahangi. Put plainly: In vivo efficacy in the L3 Brugia pahangi gerbil model. As to conditions: SC; 10 mg/kg; 5 days, QD; positive control. As for the experimental part:
For our in vivo model, gerbils were infected by injecting B. pahangi third-stage larvae (L3) that were subsequently allowed to develop to adult worms over several months. Once stable infections had been established, 21 was administered as a suspension via once-daily oral gavage at a dose of 100 mg/kg for 7, 14, or 28 days. All animals were maintained until day 63 after the start of dosing, at which time adult worms were recovered from the peritoneal cavity and microfilariae were quantified in blood samples. Flubendazole (5 mg/kg, SC × 5 days) was included as a positive control in this study. […]
as §1, §2, §3, §4, §5, §6, §7, §8, §9, §10
In the case of `COC(=O)Nc1nc2cc(C(=O)c3ccc(F)cc3)ccc2[nH]1` [compound 3, flubendazole, reference compound], the “Number of Worms Recovered, Avg Female Worms” value was 0.0 and the “Number of Worms Recovered, Avg Male Worms” value came to 0.0.

The series is the same for the next values; noted with them: given SC.
Take `COC(=O)Nc1nc2cc(C(=O)c3ccc(F)cc3)ccc2[nH]1` [compound 3, flubendazole, reference compound]: the “worms recovered from positive control group” value is on record as “no worms recovered”.

The values are drawn from article PMC7026882, “Macrofilaricidal Benzimidazole–Benzoxaborole Hybrids as an Approach to the Treatment of River Blindness: Part 2. Ketone Linked Analogs” (ACS Infectious Diseases, 2019).
